Data reported in PMC4383039 (Science translational medicine, 2015).
Converted amounts (≈) assume the structure as drawn. Read-outs that look alike come from different tables or passages of the source. Marks after values point to notes of the source that are not given here.

Legend:
Mtb H37Rv [1] = test: microbe, parasite or virus in culture; type: cell-based, Mycobacterium tuberculosis; conditions: for MIC50: Mycobacterium tuberculosis, H37RV
InhA [2] = molecular target: T1, InhA (Mycobacterium tuberculosis, UniProt P9WGR1); test: biochemical
[3] = molecular target: InhA with cofactor (NADH or NAD+) (Mycobacterium tuberculosis, UniProt P9WGR1); type: binding
InhA-NADH complex = InhA-NADH complex (Mycobacterium tuberculosis, UniProt P9WGR1); test: biochemical; type: binding
[4] = molecular target: apo-InhA, InhA-NAD+ complex (Mycobacterium tuberculosis, UniProt P9WGR1); type: binding
mycolates = type: cell-based, Mycobacterium tuberculosis
Mtb H37Rv [5] = conditions: cited from earlier work
InhA [6] = molecular target: T1, InhA; conditions: read-out: InhA IC50; cited from earlier work
in vitro replicating Mtb = type: cell-based, Mycobacterium tuberculosis
Mtb H37Rv [7] = tested on: Mtb H37Rv; design: species or system BALB/c mice; conditions: mouse, in vivo

Sequence of InhA with cofactor (NADH or NAD+) (P9WGR1 whole entry, looked up): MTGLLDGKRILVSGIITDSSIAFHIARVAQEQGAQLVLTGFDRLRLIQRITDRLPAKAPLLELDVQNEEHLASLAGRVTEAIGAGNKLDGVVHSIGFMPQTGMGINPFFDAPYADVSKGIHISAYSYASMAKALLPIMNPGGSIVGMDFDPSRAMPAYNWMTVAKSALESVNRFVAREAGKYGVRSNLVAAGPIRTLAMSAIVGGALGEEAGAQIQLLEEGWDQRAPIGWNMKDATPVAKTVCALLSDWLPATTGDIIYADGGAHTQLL
Sequence of InhA-NADH complex (P9WGR1 whole entry, looked up, one chain of several): as the sequence (P9WGR1 whole entry, looked up) above
T1 sequence (P9WGR1 whole entry, looked up): as above
Sequence of apo-InhA, InhA-NAD+ complex (P9WGR1 whole entry, looked up, one chain of several): as the sequence (P9WGR1 whole entry, looked up) above

SMILES: CC(C)Cc1cc(O)c(-c2ccccc2)c(=O)[nH]1 [NITD-529, 4-hydroxy-6-isobutyl-3-phenylpyridin-2(1H)-one]
- Mtb MIC50 (Mtb H37Rv [1]): 1.54 µM
- MIC50 (Mtb H37Rv [1]; 120 h, read-out: Mtb MIC50): 1.5 µM (≈ 0.365 µg/mL)
- MIC50 (Mtb H37Rv [1]; read-out: Compound MIC50): 1.54 µM (≈ 0.375 µg/mL)
- IC50 (InhA [2]): 9.6 ± 0.7 µM
- Thermaflor assay Tm, E-NAD+-I [3]: 50.3 °C
- Thermaflor assay Tm, E-NADH-I [3]: 54.7 °C
- Thermaflor assay ΔTm [3]: 4.4 °C
- ITC (+NADH) N (InhA-NADH complex): 0.97 ± 0.23
- Kd (InhA-NADH complex): 25 ± 7 µM
- ITC (+NADH) ΔH (InhA-NADH complex; 25°C): 13100 ± 4202 cal/mol
- ITC (+NADH) ΔS (InhA-NADH complex; 25°C): -22.9 cal/mol
- ITC binding to InhA [4]: no binding was observed
- effect on mycolates (mycolates): dose-dependent inhibition of mycolates

SMILES: O=[N+]([O-])c1cn2c(n1)OC[C@@H](OCc1ccc(OC(F)(F)F)cc1)C2 [PA-824]
- MIC50 (Mtb H37Rv [5]): 0.4 µM (≈ 0.144 µg/mL)

SMILES: c1ccc(Oc2ccccc2)cc1 [PT70]
- Thermaflor assay Tm, E-NAD+-I [3]: 66.7 °C
- Thermaflor assay Tm, E-NADH-I [3]: 60.1 °C
- Thermaflor assay ΔTm [3]: -6.6 °C
- Mtb MIC50 (Mtb H37Rv [5]): 11 ^a μM
- IC50 (InhA [6]): < 50 nM

SMILES: COc1nc2ccc(Br)cc2cc1[C@@H](c1ccccc1)[C@@](O)(CCN(C)C)c1cccc2ccccc12 [bedaquiline]
- MIC50 (Mtb H37Rv [5]): 0.05 µM (≈ 0.0278 µg/mL)

SMILES: CCc1cc(C(N)=S)ccn1 [ethionamide]
- MIC50 (Mtb H37Rv [1]; read-out: Compound MIC50): 1.66 µM (≈ 0.276 µg/mL)

SMILES: NNC(=O)c1ccncc1 [isoniazid]
- MIC50 (Mtb H37Rv [1]; read-out: Compound MIC50): 0.25 µM (≈ 0.0343 µg/mL)
- concentration showing rapid killing (in vitro cidal-activity profile) (in vitro replicating Mtb): 0.5 µM
- efficacy compared with reference drugs / NITD-916 (Mtb H37Rv [7]): significantly more potent than NITD-916
- MIC50 (Mtb H37Rv [5]): 0.33 µM (≈ 0.0453 µg/mL)

SMILES: CO[C@H]1/C=C/O[C@@]2(C)Oc3c(C)c(O)c4c(O)c(c(/C=N/N5CCN(C)CC5)c(O)c4c3C2=O)NC(=O)/C(C)=C\C=C\[C@H](C)[C@H](O)[C@@H](C)[C@@H](O)[C@@H](C)[C@H](OC(C)=O)[C@@H]1C [rifampicin]
- efficacy compared with reference drugs / NITD-916 (Mtb H37Rv [7]): significantly more potent than NITD-916

SMILES: [H]/N=C(/N)N[C@H]1[C@H](O)[C@@H](O)[C@H](O[C@@H]2O[C@@H](C)[C@](O)(C=O)[C@H]2O[C@@H]2O[C@@H](CO)[C@H](O)[C@@H](O)[C@@H]2NC)[C@@H](N/C(N)=N\[H])[C@@H]1O [streptomycin]
- MIC50 (Mtb H37Rv [1]; read-out: Compound MIC50): 0.08 µM (≈ 0.0465 µg/mL)
